Target: T1, Phafin2 (Homo sapiens, UniProt Q9H8W4)
T1 construct: gene PLEKHF2; full length (PH and FYVE domains; C-terminal tryptic peptide 224-249), pGEX4T3 GST fusion, GST removed by thrombin; N-terminus Gly-Ser-Met-Val-Asp (Gly-Ser from vector); E. coli Rosetta; 27,941 Da; monomer
T1 sequence (Q9H8W4 1-249): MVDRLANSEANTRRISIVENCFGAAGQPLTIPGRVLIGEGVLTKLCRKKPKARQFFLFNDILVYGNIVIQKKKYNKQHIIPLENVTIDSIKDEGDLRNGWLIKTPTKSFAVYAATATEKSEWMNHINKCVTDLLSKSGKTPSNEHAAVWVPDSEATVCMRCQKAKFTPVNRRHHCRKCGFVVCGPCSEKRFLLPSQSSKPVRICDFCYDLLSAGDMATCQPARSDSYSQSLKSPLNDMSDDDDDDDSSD
Test: SPR, liposomes on L1 chip, two-state conformational change fit
Assay type: binding
Settings: 1.5% lipid in phosphatidylcholine (DOPC) liposomes, control liposomes without it; liposome buffer 20 mM HEPES pH 7.0, 100 mM NaCl; room temperature; apparent

Kd: 0.285 ± 0.08 µM
Structure (SMILES): CCCCCCCCCCCCCCCC(=O)OC[C@H](COP(=O)(O)O[C@@H]1[C@H](O)[C@H](OP(=O)(O)O)[C@@H](O)[C@H](O)[C@H]1O)OC(=O)CCCCCCCCCCCCCCC [dipalmitoyl PtdIns(3)P]

Source: publication PMC5368057, “Structural, thermodynamic, and phosphatidylinositol 3‐phosphate binding properties of Phafin2” (Protein Science : A Publication of the Protein Society, 2017)
